Consider eleven compounds from ChEMBL document CHEMBL1135210, “Succinimide hydroxamic acids as potent inhibitors of histone deacetylase (HDAC)” (Bioorg Med Chem Lett, 2002).

Broadly, the IC50 is the concentration needed to halve the response being measured.

One experiment concerns the target Histone deacetylase. The experiment in a line: Concentration required to inhibit Histone Deacetylase (HDAC) from K562 erythroleukemia cells. Format: cell-based, Homo sapiens.
Another experiment deals with HT-1080. Description: Concentration required for the antiproliferation of Human HT1080 fibrosarcoma cells. Format: functional, cell-based.
A short description of another experiment: cells. Format: functional. The following applies: Homo sapiens, MDA435.

Description for cells: Concentration required for the antiproliferation of Human MDA-435 breast carcinoma cells

`CNCC(=O)[C@@H](Cc1ccccc1)NC(=O)CCCCCCC(=O)NO`: on Histone deacetylase, half-maximal inhibition (IC50) was put at 1400 nM. In other words, the single-digit micromolar range.
`CC(C)C[C@@H]1CC(=O)N([C@@H](CC2CCCCC2)C(=O)NCCCCCC(=O)NO)C1=O` showed an IC50 on Histone deacetylase of 640 nM.
`CC(C)C[C@H]1CN[C@H](C(=O)NCCCCCC(=O)NO)Cc2ccc(cc2)OCCCCC[C@H]1C(=O)OC(C)(C)C` registered an IC50 at Histone deacetylase of 2.1 nM.
On to `CC(C)C[C@@H]1CC(=O)N([C@@H](Cc2ccccc2)C(=O)NCCCCCC(=O)NO)C1=O`, for which the IC50 worked out at 99 nM against Histone deacetylase, 2300 nM with HT-1080 and 670 nM in “cells”.
Take `O=C(CCCCCNC(=O)[C@H](Cc1ccccc1)N1C(=O)CCC1=O)NO`: the IC50 against Histone deacetylase is 660 nM; with HT-1080, 14000 nM; in the experiment “cells”, 10000 nM.
`O=C(CCCCCNC(=O)[C@H](Cc1ccccc1)N1CCCC1=O)NO` had a half-inhibitory concentration (IC50) on Histone deacetylase of more than 5000 nM.
`CC(C)C[C@@H]1CC(=O)N(CC(=O)NCCCCCC(=O)NO)C1=O` returned an IC50 against Histone deacetylase of 5000 nM.
With `CCC[C@H]1C(=O)N([C@@H](Cc2ccc(OC)cc2)C(=O)NCCCCCC(=O)NO)C(=O)[C@@H]1CC(C)C`, the IC50 against Histone deacetylase was 38 nM; in the experiment with HT-1080 it was 530 nM; in the experiment “cells” it was 180 nM.
On to `CC(C)C[C@H]1C(=O)N([C@@H](Cc2ccccc2)C(=O)NCCCCCC(=O)NO)C(=O)C12CCCC2`, for which the IC50 is 66 nM on Histone deacetylase, 1500 nM in the experiment with HT-1080 and 700 nM in the experiment “cells”.
With `CCC[C@H]1C(=O)N([C@@H](Cc2ccccc2)C(=O)NCCCCCC(=O)NO)C(=O)[C@@H]1CC(C)C`, the values for the IC50 on Histone deacetylase, with HT-1080 and in the experiment “cells” were 51 nM, 400 nM and 570 nM, respectively.
On to `CC(C)C[C@H]1C(=O)N2C[C@@H]1CCCCCOc1ccc(cc1)C[C@H]2C(=O)NCCCCCC(=O)NO`, for which the IC50 on Histone deacetylase was found to be 38 nM; with HT-1080, 250 nM; in the experiment “cells” it was 150 nM.
